Laboratory results from paper PMC6805867, “Amphiphilic Triazine Polymer Derivatives as Antibacterial And Anti-atopic Agents in Mice Model” (Scientific Reports, 2019).

Assays:
[1] = system: Bacillus subtilis (KCTC 3068); assay: Antimicrobial activity, broth microdilution MIC; assay type: cell-based; settings: 2 × 10^6 CFU/mL in 1% peptone, 37 °C, 18–22 h, 100% inhibition of growth, performed three times
Protocol: (§1) The bacterial strains employed in the experiment were Escherichia coli (KCTC 1682), Pseudomonas aeruginosa (KCTC 1637), Bacillus subtilis (KCTC 3068), Staphylococcus aureus (KCTC 1621), three methicillin-resistant Staphylococcus aureus (CCARM 3089, 3090 and 3095), two multidrug-resistant Pseudomonas aeruginosa (CCARM 2095 and 2109) and vancomycin-resistant Enterococcus faecium (ATCC 51559). The antimicrobial activities of polymers were determined by the broth microdilution method, and the procedures were used as previously reported. Briefly, bacteria grown to mid-logarithmic phase in LB broth were diluted to 2 × 10^6 CFU/mL in 1% peptone and added to serial two-fold dilutions of different polymers ranging from 1 to 64 μg/mL. The plates were incubated in a shaking incubator at 37 °C for 18–22 h. The minimum inhibitory concentration (MIC) was determined by confirming the absence of bacterial growth both visually and spectrophotometrically by OD600 readings taken by a microplate ELISA reader (Molecular Devices, Sunnyvale, CA, USA). All measurements were performed three times.

[2] = system: Escherichia coli (KCTC 1682); assay: Antimicrobial activity, broth microdilution MIC; assay type: cell-based; settings: 2 × 10^6 CFU/mL in 1% peptone, 37 °C, 18–22 h, 100% inhibition of growth, performed three times
Protocol: as §1

[3] = system: Pseudomonas aeruginosa (KCTC 1637); assay: Antimicrobial activity, broth microdilution MIC; assay type: cell-based; settings: 2 × 10^6 CFU/mL in 1% peptone, 37 °C, 18–22 h, 100% inhibition of growth, performed three times
Protocol: as §1

[4] = system: Staphylococcus aureus (KCTC 1621); assay: Antimicrobial activity, broth microdilution MIC; assay type: cell-based; settings: 2 × 10^6 CFU/mL in 1% peptone, 37 °C, 18–22 h, 100% inhibition of growth, performed three times
Protocol: as §1

[5] = system: Methicillin-resistant Staphylococcus aureus (MRSA) CCARM 3089; assay type: cell-based; settings: broth microdilution, 37 °C, 18–22 h
Protocol: as §1

[6] = system: Methicillin-resistant Staphylococcus aureus (MRSA) CCARM 3090; assay type: cell-based; settings: broth microdilution, 37 °C, 18–22 h
Protocol: as §1

[7] = system: Methicillin-resistant Staphylococcus aureus (MRSA) CCARM 3095; assay type: cell-based; settings: broth microdilution, 37 °C, 18–22 h
Protocol: as §1

[8] = system: Multidrug-resistant Pseudomonas aeruginosa (MDRPA) CCARM 2095; assay type: cell-based; settings: broth microdilution, 37 °C, 18–22 h
Protocol: as §1

[9] = system: Multidrug-resistant Pseudomonas aeruginosa (MDRPA) CCARM 2109; assay type: cell-based; settings: broth microdilution, 37 °C, 18–22 h
Protocol: as §1

trypsin = assay: Protease stability, radial diffusion assay after tryptic digestion; assay type: in vitro ADME; settings: trypsin 0.2 μg/mL in PBS, 37 °C (24 h, 4 h elsewhere in the source), clearance zones against E.coli and S.aureus
Protocol: The protease stability of triazine based polymers (TZP3 and TZP5) was performed by the radial diffusion assay as described previously. Briefly, a bacteria suspension (2×10^6 CFU/mL in LB) was mixed with 0.7% agarose. This mixture was poured into a 10-cm petri dish, and it dispersed rapidly. […] The reaction was stopped by freezing with liquid nitrogen, after which 10 μL aliquots were placed in each circle paper, put on the agarose plates, and then incubated at 37 °C overnight. The diameters of the bacterial clearance zones surrounding the circle paper were measured for the quantitation of inhibitory activities.

[10] = system: β-hexosaminidase release from RBL-2H3 cells; assay: β-hexosaminidase release assay; assay type: cell-based, rat; settings: 500 μg/mL, 12 h treatment, A23187 1 μM 30 min, dose-dependent
Protocol: The β-hexosaminidase assay was performed as described previously with some modifications. Cells were treated with different concentrations of samples for 12 h. The treated cells were washed two times with PBS and stimulated with calcium ionophore A23187 (1 μM, final concentration) at 37 °C for 30 min. Aliquots (50 μL) of the supernatants were incubated with 50 μL of 1 mM 4-nitrophenyl-N-acetyl-β-D-glucosaminide in 0.1 M sodium citrate (pH 4.5) at 37 °C for 1 h. At the end of incubation, 250 μL of carbonate buffer containing 0.1 M Na2CO3 and 0.1 M NaHCO3 (pH 10) was added, and then the absorbance due to the formation of p-nitrophenol was measured at 410 nm. The supernatant from the non-stimulated cells was used as a blank while the supernatant from the stimulated cells with calcium ionophore A23187 alone was used as a control. The β-hexosaminidase release levels were calculated as a percentage compared to that of control: β-hexosaminidase release (%) = (absorbance of tested sample− absorbance of blank)/(absorbance of control-absorbance of blank) × 100.
Effect of TZP3 and TZP5 on TNF-α suppression
Therefore, the dimer TZP3 and trimer TZP5 were probed for their potential for inhibiting the TNF-α induced from RBL-2H3 cells in in vitro method.
Calcium ionophore A23187 and PMA induced the TNF-α secretion in RBL-2H3 cells, on the contrary, treatment of which with TZP3 and TZP5
Figure S1. […]

| SMILES | MIC Bacillus subtilis (KCTC 3068) [1] | MIC Escherichia coli (KCTC 1682) [2] | MIC Pseudomonas aeruginosa (KCTC 1637) [3] | MIC Staphylococcus aureus (KCTC 1621) [4] | MIC MRSA CCARM 3089 [5] | MIC MRSA CCARM 3090 [6] | MIC MRSA CCARM 3095 [7] | MIC MDRPA CCARM 2095 [8] | MIC MDRPA CCARM 2109 [9] | antibacterial activity after incubation with trypsin (trypsin) | inhibition of β-hexosaminidase release [10] |
| --- | --- | --- | --- | --- | --- | --- | --- | --- | --- | --- | --- |
| NCCCN(CCCN)c1nc(N)nc(NCCNc2nc(Cl)nc(N(Cc3ccccc3)Cc3ccccc3)n2)n1 [TZP3] | 2 [3.4] μg/mL | 4 [6.8] μg/mL | 8 [13.5] μg/mL | 4 [6.8] μg/mL | 8 [13.5] µg/mL | 8 [13.5] µg/mL | 8 [13.5] µg/mL | 8 [13.5] µg/mL | 8 [13.5] µg/mL | did not lose any of their antibacterial effects | maximum inhibitory effects |
| NCCCN(CCCN)c1nc(Cl)nc(NCCNc2nc(NCCNc3nc(N)nc(NCCC(c4ccccc4)c4ccccc4)n3)nc(N(CCCN)CCCN)n2)n1 [TZP5] | 2 [1.5] μg/mL | 4 [3] μg/mL | 4 [3] μg/mL | 4 [3] μg/mL | 4 [3] µg/mL | 4 [3] µg/mL | 4 [3] µg/mL | 8 [6] µg/mL | 8 [6] µg/mL | did not lose any of their antibacterial effects | maximum inhibitory effects |
